Results published in ChEMBL document CHEMBL5370557, “Structure-based discovery of IHMT-IDH1-053 as a potent irreversible IDH1 mutant selective inhibitor” (Eur J Med Chem, 2023).
The source made the active and inactive calls. No cut-off for these calls is given here.

Legend:
[1] = Cmax in Sprague-Dawley rat at 10 mg/kg, po measured upto 24 hrs by LC-MS/MS analysis; assay type: ADME, organism-based; set-up: time < 24 hrs, dose 10 mg/kg, route po; conditions: in vivo
[2] = tested on: Acute myeloid leukemic cell; experiment: Antiproliferative activity against human primary AML cells expressing IDH1-R132 mutant assessed as cell viability at 0.3 to 10 uM treated for 2 hrs followed by compound removal after 72 hrs by CellTiter-Glo assay; assay type: functional, cell-based; conditions: dose 0.3-10 µM
[3] = In vivo inhibition of IDH1 mutant activity in tumor of human HT-1080 cells xenografted in Balb/c mouse model assessed as reduction in 2-HG level at […], ip single administration measured upto 2 hrs relative to control; assay type: functional
[4] = target: Isocitrate dehydrogenase [NADP] cytoplasmic (Homo sapiens, UniProt O75874); experiment: Inhibition of wild type IDH1 (unknown origin) expressed in Escherichia coli BL21 (DE3) assessed as NADPH consumption using alpha-KG as substrate measured after 60 mins
[5] = target: Isocitrate dehydrogenase [NADP], mitochondrial (Homo sapiens, UniProt P48735, R140Q); experiment: Inhibition of IDH2 R140Q mutant (unknown origin) expressed in Escherichia coli BL21 (DE3) assessed as NADPH consumption using alpha-KG as substrate measured after 60 mins
[6] = target: Isocitrate dehydrogenase [NADP] cytoplasmic (Homo sapiens, UniProt O75874, R132C); experiment: Inhibition of IDH1 R132C mutant (unknown origin) expressed in Escherichia coli BL21 (DE3) assessed as NADPH consumption using alpha-KG as substrate measured after 60 mins
[7] = tested on: Isocitrate dehydrogenase [NADP] cytoplasmic (Homo sapiens), O75874 [R132H]; experiment: Binding affinity to IDH1 R132H mutant (unknown origin) expressed in Escherichia coli BL21 (DE3) assessed as ratio of Kinact/Ki
HT-1080 = experiment: Antiproliferative activity against human HT-1080 cells assessed as cell viability at 0.3 to 10 uM treated for 2 hrs followed by compound removal after 72 hrs by CellTiter-Glo assay; assay type: functional, cell-based; conditions: dose 0.3-10 µM
[8] = Tmax in Sprague-Dawley rat at 10 mg/kg, po measured upto 24 hrs by LC-MS/MS analysis; assay type: ADME, organism-based; conditions: in vivo
[9] = Half life in Sprague-Dawley rat at 10 mg/kg, po measured upto 24 hrs by LC-MS/MS analysis; assay type: ADME, organism-based; conditions: in vivo
[10] = target: T1, Isocitrate dehydrogenase [NADP] cytoplasmic (Homo sapiens, UniProt O75874, R132H); experiment: Inhibition of IDH1 R132H mutant (unknown origin) expressed in HEK293T cells assessed as inhibition of 2-HG generation measured after 48 hrs by LC-MS/MS analysis; assay type: cell-based
[11] = Apparent volume of distribution in Sprague-Dawley rat at 10 mg/kg, po measured upto 24 hrs by LC-MS/MS analysis; assay type: ADME, organism-based; conditions: in vivo
[12] = target: T1, Isocitrate dehydrogenase [NADP] cytoplasmic; experiment: Reversible binding affinity to IDH1 R132H mutant (unknown origin) expressed in Escherichia coli BL21 (DE3) assessed as inhibition constant
[13] = Cmax in Sprague-Dawley rat at 1 mg/kg, iv measured upto 24 hrs by LC-MS/MS analysis; assay type: ADME, organism-based; set-up: dose 1 mg/kg, time < 24 hrs, route iv; conditions: in vivo
[14] = Apparent volume of distribution in Sprague-Dawley rat at 1 mg/kg, iv measured upto 24 hrs by LC-MS/MS analysis; assay type: ADME, organism-based; conditions: in vivo, read-out: Vz
[15] = target: Isocitrate dehydrogenase [NADP], mitochondrial (Homo sapiens, UniProt P48735, R172K); experiment: Inhibition of IDH2 R172K mutant (unknown origin) expressed in Escherichia coli BL21 (DE3) assessed as NADPH consumption using alpha-KG as substrate measured after 60 mins
[16] = AUC (0 to t) in Sprague-Dawley rat at 1 mg/kg, iv measured upto 24 hrs by LC-MS/MS analysis; assay type: ADME, organism-based; set-up: dose 1 mg/kg, time < 24 hrs, route iv; conditions: in vivo
[17] = target: T2, Isocitrate dehydrogenase [NADP], mitochondrial (Homo sapiens, UniProt P48735); experiment: Inhibition of wild type IDH2 (unknown origin) expressed in Escherichia coli BL21 (DE3) assessed as NADPH consumption using alpha-KG as substrate measured after 60 mins
T2 sequence (P48735 whole entry): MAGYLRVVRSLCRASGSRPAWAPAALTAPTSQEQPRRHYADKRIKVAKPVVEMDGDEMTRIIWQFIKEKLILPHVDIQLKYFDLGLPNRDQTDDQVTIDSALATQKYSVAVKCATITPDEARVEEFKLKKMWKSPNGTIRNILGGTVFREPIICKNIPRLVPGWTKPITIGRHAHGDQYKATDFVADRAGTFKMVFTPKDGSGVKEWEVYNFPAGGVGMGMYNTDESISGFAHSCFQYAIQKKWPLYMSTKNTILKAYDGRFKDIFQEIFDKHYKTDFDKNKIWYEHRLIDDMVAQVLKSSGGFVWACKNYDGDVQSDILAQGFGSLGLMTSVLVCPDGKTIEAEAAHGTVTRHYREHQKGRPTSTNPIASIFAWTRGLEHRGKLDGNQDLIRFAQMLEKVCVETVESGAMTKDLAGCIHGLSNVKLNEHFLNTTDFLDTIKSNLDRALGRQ

[18] = tested on: Isocitrate dehydrogenase [NADP] cytoplasmic (Homo sapiens), O75874 [R132H]; experiment: Binding affinity to IDH1 R132H mutant (unknown origin) expressed in Escherichia coli BL21 (DE3) assessed as inactivation constant
[19] = Clearance in Sprague-Dawley rat at 10 mg/kg, po measured upto 24 hrs by LC-MS/MS analysis; assay type: ADME, organism-based; conditions: in vivo
[20] = Tmax in Sprague-Dawley rat at 1 mg/kg, iv measured upto 24 hrs by LC-MS/MS analysis; assay type: ADME, organism-based; conditions: in vivo
[21] = Half life in Sprague-Dawley rat at 1 mg/kg, iv measured upto 24 hrs by LC-MS/MS analysis; assay type: ADME, organism-based; conditions: in vivo
[22] = target: T1, Isocitrate dehydrogenase [NADP] cytoplasmic; experiment: Inhibition of IDH1 R132H mutant (unknown origin) expressed in Escherichia coli BL21 (DE3) assessed as NADPH consumption using alpha-KG as substrate measured after 60 mins
[23] = AUC (0 to t) in Sprague-Dawley rat at 10 mg/kg, po measured upto 24 hrs by LC-MS/MS analysis; assay type: ADME, organism-based; set-up: time < 24 hrs, dose 10 mg/kg, route po; conditions: in vivo
[24] = Oral bioavailability in Sprague-Dawley rat at 10 mg/kg measured upto 24 hrs by LC-MS/MS analysis; assay type: ADME, organism-based; conditions: in vivo

T1 sequence (O75874 2-414 R132H limits assumed): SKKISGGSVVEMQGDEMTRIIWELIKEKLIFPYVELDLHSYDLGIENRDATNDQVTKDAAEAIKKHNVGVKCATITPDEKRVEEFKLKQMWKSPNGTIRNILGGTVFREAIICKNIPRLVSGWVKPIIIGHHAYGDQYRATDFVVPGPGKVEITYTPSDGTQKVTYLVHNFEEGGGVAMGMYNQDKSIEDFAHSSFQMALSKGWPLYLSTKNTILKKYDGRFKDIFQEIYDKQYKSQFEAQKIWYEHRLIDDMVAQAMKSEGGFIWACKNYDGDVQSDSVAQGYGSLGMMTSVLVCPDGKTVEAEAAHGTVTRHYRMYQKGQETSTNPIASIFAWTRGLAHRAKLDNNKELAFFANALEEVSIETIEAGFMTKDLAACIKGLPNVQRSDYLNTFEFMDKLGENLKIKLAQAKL
Sequence of Isocitrate dehydrogenase [NADP] cytoplasmic (Homo sapiens), O75874 [R132H] (O75874 whole entry R132H): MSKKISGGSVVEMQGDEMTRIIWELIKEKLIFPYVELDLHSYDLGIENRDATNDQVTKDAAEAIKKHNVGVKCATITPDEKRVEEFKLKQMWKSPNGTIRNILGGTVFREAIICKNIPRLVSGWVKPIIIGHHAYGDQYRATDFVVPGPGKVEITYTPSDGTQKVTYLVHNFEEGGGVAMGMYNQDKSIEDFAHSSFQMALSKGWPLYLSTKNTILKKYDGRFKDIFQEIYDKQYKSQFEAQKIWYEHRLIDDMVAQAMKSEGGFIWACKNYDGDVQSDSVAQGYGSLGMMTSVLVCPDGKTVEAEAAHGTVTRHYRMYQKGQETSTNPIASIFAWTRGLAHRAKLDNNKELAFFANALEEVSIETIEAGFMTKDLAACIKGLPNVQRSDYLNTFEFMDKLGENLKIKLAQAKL
Sequence of Isocitrate dehydrogenase [NADP], mitochondrial (Homo sapiens, UniProt P48735, R172K) (P48735 40-452 R172K limits assumed): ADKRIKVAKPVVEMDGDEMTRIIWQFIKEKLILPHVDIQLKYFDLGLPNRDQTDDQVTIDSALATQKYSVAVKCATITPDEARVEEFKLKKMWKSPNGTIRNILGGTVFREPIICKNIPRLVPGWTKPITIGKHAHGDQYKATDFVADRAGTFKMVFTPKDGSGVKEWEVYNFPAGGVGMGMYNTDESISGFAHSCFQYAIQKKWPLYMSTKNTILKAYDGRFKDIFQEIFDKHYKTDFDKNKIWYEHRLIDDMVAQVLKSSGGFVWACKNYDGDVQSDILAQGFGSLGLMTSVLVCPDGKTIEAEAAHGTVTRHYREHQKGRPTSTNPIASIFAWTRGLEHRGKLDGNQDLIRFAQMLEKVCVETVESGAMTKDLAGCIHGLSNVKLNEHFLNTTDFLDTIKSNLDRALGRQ
Sequence of Isocitrate dehydrogenase [NADP] cytoplasmic (Homo sapiens, UniProt O75874, R132C) (O75874 2-414 R132C limits assumed): as the sequence (O75874 2-414 R132H limits assumed) above, with H131C counted along it
Sequence of Isocitrate dehydrogenase [NADP] cytoplasmic (Homo sapiens, UniProt O75874) (O75874 whole entry): as the sequence (O75874 whole entry R132H) above, with H132R counted along it
Sequence of Isocitrate dehydrogenase [NADP], mitochondrial (Homo sapiens, UniProt P48735, R140Q) (P48735 40-452 R140Q limits assumed): as the sequence (P48735 40-452 R172K limits assumed) above, with R101Q, K133R counted along it

For `C=CS(=O)(=O)NC1CCN(c2ccc([C@H](C)Nc3ncc(F)c(N4C(=O)OC[C@@H]4C(C)C)n3)cc2)CC1`, the Cmax [1] was 88.1 ng/mL, the Activity [2] was “Active” and the “inhibition (INH)” value [3] was >85%. The IC50 [4] was > 10000 nM, the IC50 [5] was > 10000 nM and the IC50 [6] was 139 nM. For the same molecule, the Ratio [7] was 0.007 µM⁻¹ s⁻¹, the Activity (HT-1080) was “Active” and the Tmax [8] was 15 min. The half-life [9] was 18 min, the IC50 [10] was 28 nM and the Vz [11] was 118.878 L/kg. The Ki [12] was 37 nM, the Cmax [13] was 199.67 ng/mL and the Vd [14] was 5.39 L/kg. The IC50 [15] was > 10000 nM, the AUCt [16] was 267.61 ng·h/mL and the IC50 [17] was > 10000 nM. It also gave a Kinact [18] of 0.015 min⁻¹, a CL/F [19] of 260 L/h/kg and a Tmax [20] of 1.8 min. The t1/2 [21] was 9.6 min, the IC50 [22] was 4.7 nM and the AUCt [23] was 36.31 ng·h/mL. The F [24] was 9.26%.
